The values that follow come from US8410309B2, “Phenoxy carboxylic acid compounds and compositions for delivering active agents” (Emisphere Technologies, Inc., priority 1999, dated 2013).

Series [1] is described as follows: Heparin oral/intracolonic delivery, clotting time by activated partial thromboplastin time (APTT). It is filed as in vivo, Sprague-Dawley rats. The settings on record: rats, baseline about 20 seconds. Summed up:
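Heparin sodium with a delivery agent in 25% aqueous propylene glycol, pH about 7, was dosed by oral gavage or intracolonically. Citrated cardiac blood was taken under ketamine (88 mg/kg) at 0.25, 0.5, 1.0 and 1.5 h after dosing. Absorption was read as a rise in APTT clotting time.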

For series [2] the following is noted: rat, in vivo, po, 150 mg/kg.
Description: (§2) Oral dosing (PO) compositions of a delivery agent compound and salmon calcitonin (sCT) in deionized water were prepared as described in Table 2 below. […] Either the sodium salt of the compound was used or the free acid was converted to the sodium salt by stirring the resultant solution and adding one equivalent of sodium hydroxide (1.0 N) and diluting with water. The solution was vortexed, then heated (about 37° C.) and sonicated. The pH was adjusted to about 7 (about 6.5 to 8.5) with NaOH or HCl. 90 μg sCT from a sCT stock solution (2 mg/ml made by adding 10001 pH 4 phosphate buffer to sCT and allowing it to go into solution by sitting for about 10-20 minutes and periodically gently inverting) was added to the solution.
(§3) The typical dosing and sampling protocols were as follows. Male Sprague-Dawley rats weighing between 200-250 g were fasted for 24 hours and administered ketamine (44 mg/kg) and chlorpromazine (1.5 mg/kg) 15 minutes prior to dosing and again as needed to maintain anesthesia. A dosing group of five animals was administered one of the dosing solutions. For oral dosing, an 11 cm Rusch 8 French catheter was adapted to a 1 ml syringe with a pipette tip. The syringe was filled with dosing solution by drawing the solution through the catheter, which was then wiped dry. The catheter was placed down the esophagus leaving 1 cm of tubing past the incisors. Solution was administered by pressing the syringe plunger.
(§4) Blood samples were collected serially from the tail artery, typically at time=0, 10, 20, 30, 60 and 90 minutes. […] Numbers were adjusted according to baseline values obtained at time=0. The results from the animals in each dosing group were averaged for each time point.
The nature of series [3]: Insulin pulmonary delivery, serum insulin by ELISA, ratio to insulin-alone control. It is filed as in vivo, Sprague-Dawley rats. The settings on record: Table 9 pulmonary delivery, rats; volume 1 ml/kg, delivery agent compound 3 mg/kg, insulin 100 mg/kg (so in the source). As to the method:
Dosing compositions of delivery agent compound and human insulin in water were prepared. Typically, to 1.5 mg of delivery agent compound was added deionized water to bring the volume to 1.0 ml, and the solution was vortexed. […] The pH was adjusted to between about 7.0 to 8.5 with NaOH or HCl. […] The final delivery agent compound dose, insulin dose and volume dose amounts are listed below in Table 9.
The typical dosing and sampling protocols were as follows. […] A control group of five animals was dosed insulin alone. A tracheal instillator for rodents, equipped with light (available from Penn Century, Inc., Pittsburgh, Pa.) was filled with dosing solution and inserted down the throat until the needle went into the trachea (confirmed visually). The dosing solution was administered by pressing the plunger.
Blood samples from each animal were collected serially from the tail artery, typically at 5, 15, 30, 60 and 120 minutes after dosing. […] The ratio of the area under the curve (AUC) for the test group versus that of the control group is reported below. The ratio of the maximum serum insulin concentration (Cmax) for the test group versus that of the control group is also reported below.
Background: ELISA stands for enzyme-linked immunosorbent assay.

Series [4] in a line: Low molecular weight heparin (LMWH) oral/intracolonic delivery, plasma LMWH by anti-Factor Xa assay. It is filed as in vivo, Sprague-Dawley rats. The settings on record: rats. Summed up: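 LMWH (parnaparin) plus delivery agent in 25% aqueous propylene glycol, pH about 7, given orally or intracolonically. Citrated blood drawn by cardiac puncture under ketamine (88 mg/kg), typically at 0.5–4.0 h post-dose. Plasma LMWH measured by chromogenic anti-Factor Xa assay; peak of mean plasma concentrations reported.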

Series [5] can be described thus: Interferon oral delivery, serum IFN by immunoassay. It is filed as in vivo, Sprague-Dawley rats. The following applies: rats, delivery agent compound 200 mg/kg, IFN 1 mg/kg, 1 ml/kg. The method, then:
Dosing solutions of delivery agent compound and human interferon (IFN) were prepared in deionized water. […] This mixture was vortexed and placed in a sonicator (about 37° C.). The pH was adjusted to about 7.0 to 8.5 with aqueous NaOH. The mixture was vortexed to produce a uniform suspension or solution, also using sonication and heat if necessary.
(§1) The typical dosing and sampling protocols were as follows.
Serum IFN concentrations were quantified using Cytoscreen Immunoassay Kit for human IFN-alpha (catalog # KHC4012 from Biosource International, Camarillo, Calif.). Previous studies indicated baseline values of about zero.

Series [6] in a line: Salmon calcitonin (sCT) oral delivery, serum sCT by EIA. The following applies: rats.
Description: as §2, §3, §4
The nature of series [7]: Daptomycin oral delivery, plasma daptomycin by HPLC. It is filed as in vivo, Sprague-Dawley rats. The settings on record: rats, delivery agent compound dose 200 mg/kg, daptomycin dose 50 mg/kg, volume dose 1 mL/kg. As to the method:
Dosing solutions containing a delivery agent compound and daptomycin (Cubist Pharmaceuticals, Cambridge, Mass.) were prepared in 0.9% normal saline. […] This mixture was vortexed and placed in a sonicator (about 37° C.). The pH was adjusted to about 7.0-7.5 with aqueous HCl or NaOH. […] The mixture was vortexed to produce a uniform solution, also using sonication if necessary. The delivery agent compound solution was mixed with daptomycin from a stock solution (200 mg daptomycin/mL in 0.9% normal saline and the pH adjusted, if necessary, to between 6.0-7.0 with NaOH or HCl). The stock solution was stored frozen (−20° C.) wrapped in foil, then thawed and warmed gradually to about 25° C. before using. The delivery agent-daptomycin mixture was vortexed at low speed to produce a uniform solution. The pH was adjusted to about 7.0-7.5 with aqueous NaOH. The solution was then diluted with 0.9% normal saline to the desired volume (usually 2.0 ml) and concentration and stored wrapped in foil before use.
as §1
Heparinized rat blood samples were collected via the ventral tail artery, typically at 0.25, 0.5, 0.75, 1.0, 2.0, and 4.0 hours after dosing, and stored on ice. Blood samples were then spun (centrifuged) at 11,500 rpm for 4 minutes at 4° C. to obtain the plasma (supernatant), which was stored at −70° C. The plasma daptomycin concentrations were measured by isocratic reversed phase HPLC, keeping samples at 4° C. during analysis. Blank plasma studies show baseline values of zero.
Daptomycin blood concentrations results from the individual animals in each dosage group were averaged for each time point.

Series [8] in a line: Insulin oral delivery, serum human insulin by ELISA. The following applies: rats.
A short description of series [9]: Parathyroid hormone (PTH 1-34) oral/intracolonic delivery, serum PTH by radioimmunoassay. The following applies: rats, oral (PO); delivery agent compound dose 100 mg/kg, PTH dose 200 μg/kg, volume dose 1 ml/kg.
Description: Oral gavage (PO) and/or intracolonic (IC) dosing solutions of delivery agent compound and human parathyroid hormone residues 1-34 (PTH) in deionized water were prepared. A solution of the compound was made either with the sodium salt of the delivery agent compound or by converting the free acid to its sodium salt.
The typical dosing and sampling protocols were as follows. Male Sprague-Dawley rats weighing between 200-250 g were fasted for 24 hours and administered ketamine (44 mg/kg) and chlorpromazine (1.5 mg/kg) 15 minutes prior to dosing and again as needed to maintain anesthesia. A dosing group of five animals was administered one of the dosing solutions. For oral gavage (PO), an 11 cm Rusch 8 French catheter was adapted to a 1 ml syringe with a pipette tip. The syringe was filled with dosing solution by drawing the solution through the catheter, which was then wiped dry. The catheter was placed down the esophagus leaving 1 cm of tubing past the incisors. The dosing solution was administered by pressing the syringe plunger. For intracolonic (IC) dosing, a 7.5 cm Rusch catheter tube (French 8 or 6) was adapted to a syringe with an Eppendorf pipette tip. The syringe was filled with the dosing solution by drawing the solution through the catheter tube. The catheter tube was wiped dry. K-Y jelly was applied to the tip, avoiding contact with the eye of the tube, and the tube was inserted into the colon through the anus until the tube was no longer visible. The dosing solution was injected by pressing the syringe plunger, and the tube was removed.
Previous studies indicated baseline values of about zero. Results from the animals in each group were averaged for each time point.
Series [10] can be described thus: Recombinant human growth hormone (rhGH) oral delivery, serum rhGH by immunoassay. The settings on record: oral gavage, rats; delivery agent compound 200 mg/kg, rhGH 3 mg/kg, volume dose 1 ml.
The mark [11] stands for this setting: IC (intracolonic), delivery agent compound 50 mg/kg, heparin 25 mg/kg, volume dose 1 ml.
[12] abbreviates: IC, delivery agent compound 50 mg/kg, LMWH 750 IU/kg, 1 ml/kg, 50 mg/kg.
Where [13] appears, read: delivery agent compound 100 mg/kg, insulin 3 mg/kg, 0.5 ml/kg.

Values joined by “and” are separate entries in the source; they are usually repeats but may differ in a detail not shown here. Equal values may be shown once. Read-outs that look alike come from different tables or passages of the source.

As to `O=C(O)COc1ccccc1O` [Compound 3], in [1] (setting [11]), the “Mean Peak APTT ± SD” value was 16.046 ± 0.481 s and 16.984 ± 1.45 s. In series [2], the “Mean Peak Serum sCT (pg/ml ± SD) (SE)” value turned out to be 0 ± 81 pg/mL.
As to `O=C(O)CCCCCCCOc1ccccc1O` [Compound 7, 8-(2-hydroxyphenoxy)octanoic acid], the melting point fell in the range of 60 to 64 °C. Besides, the “Mean Peak APTT ± SD” value in [1] (setting [11]) was 130.5 ± 42.6 s and 92 ± 40.3 s and 99.4 ± 25.5 s. For the same compound, the “Cmax (serum insulin)” value in series [3] amounted to 130.9724 μU/ml.
In the case of `CC(=O)c1ccccc1OCCCCCCCC(=O)O` [Compound 12], the “Mean Peak Plasma LMWH Concentration ± SD” value in series [4] (IC, delivery agent compound 10 mg/kg, LMWH 750 IU/kg, 1 ml/kg) is 0.2 ± 0.077 IU/ml; in [4] (setting [12]), 1.7 ± 0.308 IU/ml and 1.74 ± 0.304 IU/ml and 2.012 ± 0.124 IU/ml and 1.498 ± 0.462 IU/ml; in series [4] (IC, delivery agent compound 50 mg/kg, LMWH 751 IU/kg, 1 ml/kg), 1.5 ± 0.23 IU/ml; in [4] (PO, delivery agent compound 300 mg/kg, LMWH 3000 IU/kg, 3 ml/kg), 0.137 ± 0.18 IU/ml. The “Mean Peak APTT ± SD” value in series [1] (PO (oral gavage), delivery agent compound 300 mg/kg, heparin 100 mg/kg, volume dose 3 ml) turned out to be 201.4 ± 45.7 s. Moreover, in series [5], the “Mean Peak Serum [IFN] ± SD” value came out at 1.6362 ± 1.68 ng/mL. The “Mean Peak Serum sCT (pg/ml ± SD) (SE)” value came to 445 ± 221 pg/mL in [6] (delivery agent compound dose 50 mg/kg, sCT dose 100 μg/kg, dose volume 0.5 (ml)) and 316 ± 476 pg/mL in [6] (delivery agent compound dose 50 mg/kg, sCT dose 100 μg/kg, dose volume 1 (ml)). Moreover, the “Mean plasma Cmax [daptomycin] ± SD” value in [7] is 16110 ± 17580 ng/mL. Moreover, in series [8] (setting [13]), the “Mean Peak Serum [INS] ± SD” value worked out at 205.4 ± 333.4 μU/ml. Further, the “Mean Peak Serum [PTH] (pg/mL) ± SD” value in series [9] is recorded as 276 ± 252 pg/mL.
Regarding `NC(=O)c1ccccc1OCCCCCCCC(=O)O` [Compound 30, 8-(2-carboxamidophenoxy)caprylic acid], the “Mean Peak Plasma LMWH Concentration ± SD” value in series [4] (setting [12]) is 0.162 ± 0.094 IU/ml and 0.288 ± 0.152 IU/ml. Moreover, the “Mean Peak APTT ± SD” value in [1] (setting [11]) was 50.9 ± 20.5 s. Also, the “Mean plasma Cmax [daptomycin] ± SD” value in series [7] is 3060 ± 780 ng/mL. The “Mean Peak Serum [INS] ± SD” value in series [8] (delivery agent compound 200 mg/kg, insulin 0.5 mg/kg, 1 ml/kg) came to 21.88 ± 13.4 μU/ml. The “Mean Peak Serum [PTH] (pg/mL) ± SD” value in series [9] was found to be 78 ± 71 pg/mL.
`CNC(=O)c1ccccc1OCCCCCCCC(=O)O` [Compound 31]: the “Mean Peak Plasma LMWH Concentration ± SD” value in [4] (setting [12]) is 0.47 ± 0.287 IU/ml and 0.47 ± 0.332 IU/ml. Moreover, the “Mean Peak APTT ± SD” value in [1] (setting [11]) came out at 47 ± 23.1 s. The “Mean Peak Serum [INS] ± SD” value in series [8] (setting [13]) was 21.26 ± 6.22 μU/ml. Besides, in series [9], the “Mean Peak Serum [PTH] (pg/mL) ± SD” value is 460 ± 194 pg/mL.
Consider `CCNC(=O)c1ccccc1OCCCCCCCC(=O)O` [Compound 33, 8-(2-(N-ethylbenzamide)oxy)octanoic acid], for which, in series [10], the “Mean Peak Serum [rhGH]” value was 10.1 ng/mL and 6.9 ng/mL. Also, in series [6] (delivery agent compound dose 150 mg/kg, sCT dose 30 μg/kg, dose volume 1 (ml)), the “Mean Peak Serum sCT (pg/ml ± SD) (SE)” value amounted to 96 ± 209 pg/mL. The “Mean Peak Serum [INS] ± SD” value in series [8] (setting [13]) worked out at 58.13 ± 52.86 μU/ml. Also, the “Mean Peak Serum [PTH] (pg/mL) ± SD” value in [9] was determined as 837 ± 347 pg/mL.

As usually defined, the melting point is the temperature of the solid-liquid transition.
